target: Delta-5-Desaturase (D5D) (Homo sapiens (Human), UniProt O60427); experiment: In vitro measurement of Delta-5-Desaturase inhibitory activity using DGLA-CoA and Arachidonyl-CoA mass spectrometric assays; type: biochemical; conditions: membrane preparations of D5D-overexpressing HEK293 6E cells; averaged over at least two independent runs
Method in brief: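 Membranes from D5D-overexpressing HEK293 6E cells (10 μg/mL final) in Tris pH 7.5 with MgCl2, octyl glucoside and TCEP were mixed 1:1 with substrate solution (0.01 mM DGLA, 0.25 mM NADH, 0.25 mM ATP, 0.05 mM CoA) for 1 h at ambient temperature. RapidFire SPE-MS/MS MRM; IC50 by 4-parameter fit, ≥2 runs.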

Sequence of Delta-5-Desaturase (D5D) (O60427 whole entry, species assumed): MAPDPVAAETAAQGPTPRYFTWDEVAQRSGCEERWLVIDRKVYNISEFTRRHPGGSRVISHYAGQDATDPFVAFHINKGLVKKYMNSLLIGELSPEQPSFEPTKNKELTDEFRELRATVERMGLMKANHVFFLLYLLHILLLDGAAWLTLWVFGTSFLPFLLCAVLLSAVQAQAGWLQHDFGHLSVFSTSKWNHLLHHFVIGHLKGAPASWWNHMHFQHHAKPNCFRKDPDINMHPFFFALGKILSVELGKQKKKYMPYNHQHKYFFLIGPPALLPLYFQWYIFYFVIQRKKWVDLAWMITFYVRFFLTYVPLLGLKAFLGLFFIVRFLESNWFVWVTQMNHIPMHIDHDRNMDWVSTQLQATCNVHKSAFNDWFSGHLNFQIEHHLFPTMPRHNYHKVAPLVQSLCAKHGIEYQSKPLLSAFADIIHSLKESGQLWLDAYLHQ

Compound | IC50 [nM]
COc1cnn2c(=O)c(-c3cnn(CCC(F)(F)F)c3)c(C(F)(F)F)nc2c1 [Example 39-11, 8-methoxy-2-(trifluoromethyl)-3-[1-(3,3,3-trifluoropropyl)-1H-pyrazol-4-yl]-4H-pyrimido[1,2-b]pyridazin-4-one] | 6.9
COc1ccn2c(=O)c(-c3cnc(OCC(F)(F)C(F)(F)F)nc3)c(C(F)(F)F)nc2c1 [Example 39-12, 8-methoxy-3-[2-(2,2,3,3,3-pentafluoropropoxy)pyrimidin-5-yl]-2-(trifluoromethyl)-4H-pyrido[1,2-a]pyrimidin-4-one] | 53.7
COc1ccn2c(=O)c(-c3cnc(OCC(F)(F)F)nc3)c(C(F)(F)F)nc2n1 [Example 39-13, 8-methoxy-3-[2-(2,2,2-trifluoroethoxy)pyrimidin-5-yl]-2-(trifluoromethyl)-4H-[1,3]diazino[1,2-a]pyrimidin-4-one] | 248
COc1ccc2nc(C(F)(F)F)c(-c3cnn(CC(F)(F)C(F)(F)F)c3)c(=O)n2n1 [Example 39-14, 7-methoxy-3-[1-(2,2,3,3,3-pentafluoropropyl)-1H-pyrazol-4-yl]-2-(trifluoromethyl)-4H-pyrimido[1,2-b]pyridazin-4-one] | 44400
COc1ccc2nc(C(F)(F)F)c(-c3cnc(OCC(F)(F)F)nc3)c(=O)n2n1 [Example 39-15, 7-methoxy-3-[2-(2,2,2-trifluoroethoxy)pyrimidin-5-yl]-2-(trifluoromethyl)-4H-pyrimido[1,2-b]pyridazin-4-one] | > 67000
COC(=O)c1ccc2nc(C(F)(F)F)c(-c3cnn(CC(F)(F)C(F)(F)F)c3)c(=O)n2c1 [Example 39-16, methyl 4-oxo-3-[1-(2,2,3,3,3-pentafluoropropyl)-1H-pyrazol-4-yl]-2-(trifluoromethyl)-4H-pyrido[1,2-a]pyrimidine-7-carboxylate] | 35100
O=c1c(-c2cnn(CCC(F)(F)F)c2)c(C(F)(F)F)nc2ccc(Cl)cn12 [Example 39-17, 7-chloro-2-(trifluoromethyl)-3-[1-(3,3,3-trifluoropropyl)-1H-pyrazol-4-yl]-4H-pyrido[1,2-a]pyrimidin-4-one] | 2.4
O=c1c(-c2cnc(OCC(F)(F)F)nc2)c(C(F)(F)F)nc2ccc(Cl)cn12 [Example 39-18, 7-chloro-3-[2-(2,2,2-trifluoroethoxy)pyrimidin-5-yl]-2-(trifluoromethyl)-4H-pyrido[1,2-a]pyrimidin-4-one] | > 67000
Cc1ccc2nc(C(F)(F)F)c(-c3cnn(CC(F)(F)C(F)(F)F)c3)c(=O)n2c1 [Example 39-19, 7-methyl-3-[1-(2,2,3,3,3-pentafluoropropyl)-1H-pyrazol-4-yl]-2-(trifluoromethyl)-4H-pyrido[1,2-a]pyrimidin-4-one] | 1.7
O=c1c(-c2cnc(OCC(F)(F)F)nc2)c(C(F)(F)F)nc2ccc(C3CC3)cn12 [Example 39-20, 7-cyclopropyl-3-[2-(2,2,2-trifluoroethoxy)pyrimidin-5-yl]-2-(trifluoromethyl)-4H-pyrido[1,2-a]pyrimidin-4-one] | > 67000
O=c1c(-c2cnn(CC(F)(F)C(F)(F)F)c2)c(C(F)(F)F)nc2ccc(C3CC3)cn12 [Example 39-21, 7-cyclopropyl-3-[1-(2,2,3,3,3-pentafluoropropyl)-1H-pyrazol-4-yl]-2-(trifluoromethyl)-4H-pyrido[1,2-a]pyrimidin-4-one] | 110
O=c1c(-c2cnn(CCC(F)(F)F)c2)c(C(F)(F)F)nc2ccc(C3CC3)cn12 [Example 39-22, 7-cyclopropyl-2-(trifluoromethyl)-3-[1-(3,3,3-trifluoropropyl)-1H-pyrazol-4-yl]-4H-pyrido[1,2-a]pyrimidin-4-one] | 2950
O=c1c(-c2cnn(CC(F)(F)C(F)(F)F)c2)c(C(F)(F)F)nc2ccc(F)cn12 [Example 39-23, 7-fluoro-3-[1-(2,2,3,3,3-pentafluoropropyl)-1H-pyrazol-4-yl]-2-(trifluoromethyl)-4H-pyrido[1,2-a]pyrimidin-4-one] | 2.1
COCc1ccc2nc(C(F)(F)F)c(-c3cnn(CC(F)(F)C(F)(F)F)c3)c(=O)n2c1 [Example 39-24, 7-(methoxymethyl)-3-[1-(2,2,3,3,3-pentafluoropropyl)-1H-pyrazol-4-yl]-2-(trifluoromethyl)-4H-pyrido[1,2-a]pyrimidin-4-one] | 1520
O=c1c(-c2cnn(CC(F)(F)C(F)(F)F)c2)c(C(F)(F)F)nc2cnccn12 [Example 39-25, 3-[1-(2,2,3,3,3-pentafluoropropyl)-1H-pyrazol-4-yl]-2-(trifluoromethyl)-4H-pyrazino[1,2-a]pyrimidin-4-one] | 3.7
O=c1c(-c2cnc(OCC(F)(F)F)nc2)c(C(F)(F)F)nc2ccc(F)cn12 [Example 39-26, 7-fluoro-3-[2-(2,2,2-trifluoroethoxy)pyrimidin-5-yl]-2-(trifluoromethyl)-4H-pyrido[1,2-a]pyrimidin-4-one] | > 67000

Compound | IC50 [nM]
O=c1c(-c2cnn(CCC(F)(F)F)c2)c(C(F)(F)F)nc2ccc(F)cn12 [Example 39-27, 7-fluoro-2-(trifluoromethyl)-3-[1-(3,3,3-trifluoropropyl)-1H-pyrazol-4-yl]-4H-pyrido[1,2-a]pyrimidin-4-one] | 1.1
O=c1c(-c2cnn(CC(F)(F)C(F)(F)F)c2)c(C(F)(F)F)nc2ccc(N3CCC3)cn12 [Example 39-28, 7-(azetidin-1-yl)-3-[1-(2,2,3,3,3-pentafluoropropyl)-1H-pyrazol-4-yl]-2-(trifluoromethyl)-4H-pyrido[1,2-a]pyrimidin-4-one] | > 67000
CN(C)Cc1ccc2nc(C(F)(F)F)c(-c3cnn(CC(F)(F)C(F)(F)F)c3)c(=O)n2c1 [Example 39-29, 7-[(dimethylamino)methyl]-3-[1-(2,2,3,3,3-pentafluoropropyl)-1H-pyrazol-4-yl]-2-(trifluoromethyl)-4H-pyrido[1,2-a]pyrimidin-4-one] | > 67000
Cc1cn2c(=O)c(-c3cnc(OCC(F)(F)F)nc3)c(C(F)(F)F)nc2cn1 [Example 39-30, 7-methyl-3-[2-(2,2,2-trifluoroethoxy)pyrimidin-5-yl]-2-(trifluoromethyl)-4H-pyrazino[1,2-a]pyrimidin-4-one] | > 67000
Cc1cn2c(=O)c(-c3cnn(CC(F)(F)C(F)(F)F)c3)c(C(F)(F)F)nc2cn1 [Example 39-31, 7-methyl-3-[1-(2,2,3,3,3-pentafluoropropyl)-1H-pyrazol-4-yl]-2-(trifluoromethyl)-4H-pyrazino[1,2-a]pyrimidin-4-one] | 28
Cc1ccc2nc(C(F)(F)F)c(-c3cnn(CC(F)(F)C(F)(F)F)c3)c(=O)n2n1 [Example 39-32, 7-methyl-3-[1-(2,2,3,3,3-pentafluoropropyl)-1H-pyrazol-4-yl]-2-(trifluoromethyl)-4H-pyrimido[1,2-b]pyridazin-4-one] | 154
Cc1ccc2nc(C(F)(F)F)c(-c3cnn(CCC(F)(F)F)c3)c(=O)n2n1 [Example 39-33, 7-methyl-2-(trifluoromethyl)-3-[1-(3,3,3-trifluoropropyl)-1H-pyrazol-4-yl]-4H-pyrimido[1,2-b]pyridazin-4-one] | 19.9
O=c1c(-c2cnn(CC(F)(F)C(F)(F)F)c2)c(C(F)(F)F)nc2n1CCOC2 [Example 39-34, 3-[1-(2,2,3,3,3-pentafluoropropyl)-1H-pyrazol-4-yl]-2-(trifluoromethyl)-4H,6R,7H,9H-pyrimido[2,1-c][1,4]oxazin-4-one] | 30.2
O=c1c(-c2cnn(CC(F)(F)C(F)(F)F)c2)c(C(F)(F)F)nc2cnc(Cl)cn12 [Example 39-35, 7-chloro-3-[1-(2,2,3,3,3-pentafluoropropyl)-1H-pyrazol-4-yl]-2-(trifluoromethyl)-4H-pyrazino[1,2-a]pyrimidin-4-one] | 13.4
Cc1ccc2nc(C(F)(F)F)c(-c3cnc(OCC(F)(F)F)nc3)c(=O)n2n1 [Example 39-36, 7-methyl-3-[2-(2,2,2-trifluoroethoxy)pyrimidin-5-yl]-2-(trifluoromethyl)-4H-pyrimido[1,2-b]pyridazin-4-one] | > 67000
COc1cn2c(=O)c(-c3cnn(CC(F)(F)C(F)(F)F)c3)c(C(F)(F)F)nc2cn1 [Example 39-37, 7-methoxy-3-[1-(2,2,3,3,3-pentafluoropropyl)-1H-pyrazol-4-yl]-2-(trifluoromethyl)-4H-pyrazino[1,2-a]pyrimidin-4-one] | 61
O=c1c(-c2cnn(CCC(F)(F)F)c2)c(C(F)(F)F)nc2n1CCOC2 [Example 39-38, 2-(trifluoromethyl)-3-[1-(3,3,3-trifluoropropyl)-1H-pyrazol-4-yl]-4H,6H,7H,9H-pyrimido[2,1-c][1,4]oxazin-4-one] | 1070
O=c1c(-c2cnc(OCC(F)(F)F)nc2)c(C(F)(F)F)nc2n1CCOC2 [Example 39-39, 3-[2-(2,2,2-trifluoroethoxy)pyrimidin-5-yl]-2-(trifluoromethyl)-4H,6H,7H,9H-pyrimido[2,1-c][1,4]oxazin-4-one] | > 67000
Cc1cnn2c(=O)c(-c3cnn(CC(F)(F)C(F)(F)F)c3)c(C(F)(F)F)nc2c1 [Example 39-40, 8-methyl-3-[1-(2,2,3,3,3-pentafluoropropyl)-1H-pyrazol-4-yl]-2-(trifluoromethyl)-4H-pyrimido[1,2-b]pyridazin-4-one] | 67
Cc1nccn2c(=O)c(-c3cnn(CC(F)(F)C(F)(F)F)c3)c(C(F)(F)F)nc12 [Example 39-41, 9-methyl-3-[1-(2,2,3,3,3-pentafluoropropyl)-1H-pyrazol-4-yl]-2-(trifluoromethyl)-4H-pyrazino[1,2-a]pyrimidin-4-one] | 65.1
Cc1cn2c(=O)c(-c3cnn(CC(F)(F)C(F)(F)F)c3)c(C(F)(F)F)nc2c(C)n1 [Example 39-43, 7,9-dimethyl-3-[1-(2,2,3,3,3-pentafluoropropyl)-1H-pyrazol-4-yl]-2-(trifluoromethyl)-4H-pyrazino[1,2-a]pyrimidin-4-one] | 179

From patent publication US12473289B2, “Heterocyclic compounds as delta-5 desaturase inhibitors and methods of use” (Amgen Inc., priority 2019, dated 2025)
